Consider 20 molecules from patent publication US20240043435A1, “TYK-2 INHIBITOR” (BEIGENE, LTD., priority 2020, published 2024).

Test [1] addresses T1, TYK2-JH2 (aa 575-869, in-house) protein (Homo sapiens, UniProt P29597).
T1 construct: TYK2-JH2 (aa 575-869, in-house) protein; made in house
In words: TYK2-JH2 biochemical assay (HTRF probe displacement). The test is classed as binding. As to conditions: Biochemical assay; read-out: TYK2-JH2 IC50. The procedure, abridged: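 HTRF probe-displacement format: compound dilutions (10 points, 5-fold, from 500 uM in DMSO at 500×) were combined with 0.2 nM TYK2-JH2 protein for 0.5 h at room temperature in HEPES pH 7.5 buffer with MgCl2, BSA, DTT and Brij-35. Percent inhibition came from the 615/665 nm fluorescence ratio, fitted to a four-parameter logistic for IC50.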
(In general: In TR-FRET formats the signal depends on donor and acceptor labels being close together.)

Another test concerns pSTAT5/GM-CSF. In words: pSTAT5/GM-CSF cellular assay (JAK2 selectivity). The format is cell-based.
The test system of test [2] is JAK2, TYK2/p-STAT4 (Tyr693) activated by IL-12 in NK-92 cell line. Briefly: IL-12-JAK2, TYK2/p-STAT4 (Tyr693) inhibition IC50 cellular assay. The format is cell-based. As to conditions: for IC50: NK92, Cellular assay, read-out: pSTAT4/IL-12 IC50; for Selectivity fold (TYK2/JAK2): Cellular assay, pSTAT5/GM-CSF IC50 vs pSTAT4/IL-12 IC50. The procedure, abridged: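 p-STAT4 (Tyr693) in lysates was measured by AlphaLISA SureFire Ultra after a 30 min IL-12 challenge (40 ng/ml final) at 37° C. Overnight-starved, IL-2-free NK-92 cells had been pretreated 1 h with compound at 10000 to 0.61 nM (4-fold, 8 points). IC50 values came from four-parameter logistic fitting.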

The mark [3] stands for this setting: pSTAT5/GM-CSF IC50 over pSTAT4/IL-12 IC50.

The structures appear in SMILES notation.

T1 sequence (P29597 575-869): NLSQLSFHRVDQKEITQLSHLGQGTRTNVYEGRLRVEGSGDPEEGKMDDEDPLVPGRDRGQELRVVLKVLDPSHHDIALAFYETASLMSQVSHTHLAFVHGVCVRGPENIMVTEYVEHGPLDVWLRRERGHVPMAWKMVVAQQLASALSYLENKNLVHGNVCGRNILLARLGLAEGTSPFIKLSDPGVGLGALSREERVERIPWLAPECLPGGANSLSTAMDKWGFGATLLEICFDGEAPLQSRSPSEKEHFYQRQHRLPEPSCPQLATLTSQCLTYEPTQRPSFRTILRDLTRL

In the case of `CC(=O)Nc1cc(Nc2cccc(S(C)(=O)=O)n2)c(-c2ccc(N3CCOCC3=O)cn2)cn1` [Example G2, N-(4′-((6-(methylsulfonyl)pyridin-2-yl)amino)-5-(3-oxomorpholino)-[2,3′-bipyridin]-6′-yl)acetamide], the results for the IC50 (in test [1]; with pSTAT5/GM-CSF; in test [2]) were 0.067 nM, greater than 10000 nM and 14.2 nM, respectively. Further, the “Selectivity fold (TYK2/JAK2)” value in the test with pSTAT5/GM-CSF (pSTAT5/GM-CSF vs pSTAT4/IL-12) was greater than 704 fold.

With `CC(=O)Nc1cc(Nc2cc(OCC3CC3)cc(S(C)(=O)=O)c2)c(-c2ccc(N3C[C@@H](C)O[C@@H](C)C3)cn2)cn1` [Example C6, N-(4′-((3-(cyclopropylmethoxy)-5-(methylsulfonyl)phenyl)amino)-5-((cis)-2,6-dimethylmorpholino)-[2,3′-bipyridin]-6′-yl)acetamide], the IC50 in test [1] is 0.054 nM; in the test with pSTAT5/GM-CSF it was greater than 10000 nM; in test [2], 26 nM. Moreover, the “Selectivity fold (TYK2/JAK2)” value in test [2] is on record as greater than 381 fold.

With `CC(=O)Nc1cc(Nc2cccc(S(C)(=O)=O)n2)c(-c2ccc(C(C)(C)O)cn2)cn1` [Example H5, N-(5-(2-hydroxypropan-2-yl)-4′-((6-(methylsulfonyl)pyridin-2-yl)amino)-[2,3′-bipyridin]-6′-yl)acetamide], the values for the IC50 (in test [1]; in the test on pSTAT5/GM-CSF; in test [2]) were 0.015 nM, 1680 nM and 0.323 nM, respectively. In addition, the “Selectivity fold (TYK2/JAK2)” value in test [2] is 5185 fold.

Regarding `CC(=O)Nc1cc(Nc2cc(OCC3CC3)cc(S(C)(=O)=O)n2)c(-c2ccc(N3C[C@@H](C)O[C@@H](C)C3)cn2)cn1` [Example C5, N-(4′-((4-(cyclopropylmethoxy)-6-(methylsulfonyl)pyridin-2-yl)amino)-5-((cis)-2,6-dimethylmorpholino)-[2,3′-bipyridin]-6′-yl)acetamide], the IC50 in test [1] is 0.032 nM; with pSTAT5/GM-CSF it was greater than 10000 nM; in test [2] it was 21.9 nM. Moreover, the “Selectivity fold (TYK2/JAK2)” value in test [2] is given as greater than 456 fold.

With `COCC1CN(c2ccc(-c3cnc(NC(C)=O)cc3Nc3cc(OC(C)C)cc(S(C)(=O)=O)n3)nc2)CCO1` (centres unmarked) [Example B18, N-(4′-((4-isopropoxy-6-(methylsulfonyl)pyridin-2-yl)amino)-5-(2-(methoxymethyl)morpholino)-[2,3′-bipyridin]-6′-yl)acetamide], the IC50 in test [1] was 0.036 nM; in the test on pSTAT5/GM-CSF, greater than 10000 nM; in test [2] it was 1.05 nM. The “Selectivity fold (TYK2/JAK2)” value in test [2] is recorded as greater than 9523 fold.

Consider `COc1ccc(S(C)(=O)=O)nc1Nc1cc(NC(C)=O)ncc1-c1cnn(C)c1` [Example A11, N-(4-((3-methoxy-6-(methylsulfonyl)pyridin-2-yl)amino)-5-(1-methyl-1H-pyrazol-4-yl)pyridin-2-yl)acetamide], for which the IC50 in test [1] is 0.063 nM; in the test on pSTAT5/GM-CSF, greater than 10000 nM; in test [2], 41.7 nM. The “Selectivity fold (TYK2/JAK2)” value in test [2] is recorded as greater than 239 fold.

Regarding `CC(=O)Nc1cc(Nc2cccc(S(C)(=O)=O)n2)c(-c2ccc(N3C[C@@H](C)O[C@@H](C)C3)cn2)cn1` [Example C2, N-(5-((cis)-2,6-dimethylmorpholino)-4′-((6-(methylsulfonyl)pyridin-2-yl)amino)-[2,3′-bipyridin]-6′-yl)acetamide], the IC50 in test [1] worked out at 0.026 nM; in the test on pSTAT5/GM-CSF, 962 nM; in test [2] it was 0.312 nM. Also, the “Selectivity fold (TYK2/JAK2)” value in test [2] is 3083 fold.

For the molecule `CC(=O)Nc1cc(Nc2cc(OC(C)C)cc(S(C)(=O)=O)n2)c(-c2ccc(N3C[C@@H](C)O[C@@H](C)C3)cn2)cn1` [Example C4, N-(5-((cis)-2,6-dimethylmorpholino)-4′-((4-isopropoxy-6-(methylsulfonyl)pyridin-2-yl)amino)-[2,3′-bipyridin]-6′-yl)acetamide], the IC50 in test [1] was 0.034 nM; in the test with pSTAT5/GM-CSF it was greater than 10000 nM; in test [2], 4.35 nM. Also, the “Selectivity fold (TYK2/JAK2)” value in test [2] is on record as greater than 2298 fold.

As for `CC(=O)Nc1cc(Nc2cc(OC(F)F)cc(S(C)(=O)=O)n2)c(-c2ccn(C)n2)cn1` [Example J58, N-(4-((4-(difluoromethoxy)-6-(methylsulfonyl)pyridin-2-yl)amino)-5-(1-methyl-1H-pyrazol-3-yl)pyridin-2-yl)acetamide], the results for the IC50 (in test [1]; in the test on pSTAT5/GM-CSF; in test [2]) were 0.025 nM, greater than 10000 nM and 0.497 nM, respectively. Also, in the test on pSTAT5/GM-CSF (setting [3]), the “Selectivity fold (TYK2/JAK2)” value is reported as greater than 20120 fold.

In the case of `CC(=O)Nc1cc(Nc2cccc(S(C)(=O)=O)n2)c(-c2c[nH]cn2)cn1` [Example A3, N-(5-(1H-imidazol-4-yl)-4-((6-(methylsulfonyl)pyridin-2-yl)amino)pyridin-2-yl)acetamide], the IC50 in test [1] was 0.035 nM; in the test with pSTAT5/GM-CSF, greater than 10000 nM; in test [2] it was 2.53 nM. Moreover, in test [2], the “Selectivity fold (TYK2/JAK2)” value is greater than 3952 fold.

Turning to `COC(C)COc1cc(Nc2cc(NC(C)=O)ncc2-c2ccn(C)n2)nc(S(C)(=O)=O)c1` (centres unmarked) [Example J13, N-(4-((4-(2-methoxypropoxy)-6-(methylsulfonyl)pyridin-2-yl)amino)-5-(1-methyl-1H-pyrazol-3-yl)pyridin-2-yl)acetamide], the figures for the IC50 (in test [1]; with pSTAT5/GM-CSF; in test [2]) were 0.054 nM, greater than 10000 nM and 1.18 nM, respectively. The “Selectivity fold (TYK2/JAK2)” value in the test on pSTAT5/GM-CSF (setting [3]) is reported as greater than 8474 fold.

As to `COCCOc1ccc(-c2cnc(NC(C)=O)cc2Nc2cc(C)cc(S(C)(=O)=O)n2)nc1` [Example D4, N-(5-(2-methoxyethoxy)-4′-((4-methyl-6-(methylsulfonyl)pyridin-2-yl)amino)-[2,3′-bipyridin]-6′-yl)acetamide], the IC50 is 0.044 nM in test [1], greater than 10000 nM in the test with pSTAT5/GM-CSF and 0.262 nM in test [2]. The “Selectivity fold (TYK2/JAK2)” value in test [2] is given as greater than 38167 fold.

With `CC(=O)Nc1cc(Nc2cccc(S(C)(=O)=O)n2)c(-c2ccn(C3CC3)n2)cn1` [Example M1, N-(5-(1-cyclopropyl-1H-pyrazol-3-yl)-4-((6-(methylsulfonyl)pyridin-2-yl)amino)pyridin-2-yl)acetamide], the values for the IC50 (in test [1]; in the test with pSTAT5/GM-CSF; in test [2]) were 0.055 nM, 2010 nM and 0.174 nM, respectively. Further, the “Selectivity fold (TYK2/JAK2)” value in the test with pSTAT5/GM-CSF (setting [3]) is given as 11551 fold.

As to `CO[C@H](C)COc1cc(Nc2cc(NC(C)=O)ncc2-c2ccn(C)n2)nc(S(C)(=O)=O)c1` [Example J14, (R)-N-(4-((4-(2-methoxypropoxy)-6-(methylsulfonyl)pyridin-2-yl)amino)-5-(1-methyl-1H-pyrazol-3-yl)pyridin-2-yl)acetamide], the IC50 in test [1] was 0.033 nM; with pSTAT5/GM-CSF, greater than 10000 nM; in test [2], 0.792 nM. Besides, in the test with pSTAT5/GM-CSF (setting [3]), the “Selectivity fold (TYK2/JAK2)” value is greater than 12626 fold.

For the molecule `CC(=O)Nc1cc(Nc2cc(OC(F)(F)F)cc(S(C)(=O)=O)c2)c(-c2ccn(C)n2)cn1` [Example J10, N-(5-(1-methyl-1H-pyrazol-3-yl)-4-((3-(methylsulfonyl)-5-(trifluoromethoxy)phe-nyl)amino)pyridin-2-yl)acetamide], the IC50 in test [1] was 0.05 nM; in the test with pSTAT5/GM-CSF it was greater than 10000 nM; in test [2], 6.34 nM. For the same molecule, the “Selectivity fold (TYK2/JAK2)” value in the test with pSTAT5/GM-CSF (setting [3]) is greater than 1577 fold.

In the case of `CC(=O)Nc1cc(Nc2cc(OC3CCC3)cc(S(C)(=O)=O)n2)c(-c2ccc(C(C)(C)O)cn2)cn1` [Example H31, N-(4′-((4-cyclobutoxy-6-(methylsulfonyl)pyridin-2-yl)amino)-5-(2-hydroxypropan-2-yl)-[2,3′-bipyridin]-6′-yl)acetamide], the IC50 in test [1] was 0.023 nM; with pSTAT5/GM-CSF it was greater than 10000 nM; in test [2], 0.935 nM. In addition, the “Selectivity fold (TYK2/JAK2)” value in test [2] is given as greater than 10695 fold.

With `COCCOc1cc(Nc2cc(NC(C)=O)ncc2-c2ccn(C)n2)nc(S(C)(=O)=O)c1` [Example J12, N-(4-((4-(2-methoxyethoxy)-6-(methylsulfonyl)pyridin-2-yl)amino)-5-(1-methyl-1H-pyrazol-3-yl)pyridin-2-yl)acetamide], the IC50 was 0.017 nM in test [1], greater than 10000 nM in the test on pSTAT5/GM-CSF and 0.847 nM in test [2]. In addition, the “Selectivity fold (TYK2/JAK2)” value in the test with pSTAT5/GM-CSF (setting [3]) is on record as greater than 11806 fold.

For the molecule `CC(=O)Nc1cc(Nc2cc(F)cc(S(C)(=O)=O)c2)c(-c2ccn(C)n2)cn1` [Example J30, N-(4-((3-fluoro-5-(methylsulfonyl)phenyl)amino)-5-(1-methyl-1H-pyrazol-3-yl)pyridin-2-yl)acetamide], the IC50 in test [1] was 0.054 nM; in the test with pSTAT5/GM-CSF, greater than 10000 nM; in test [2] it was 4.82 nM. Further, in the test with pSTAT5/GM-CSF (setting [3]), the “Selectivity fold (TYK2/JAK2)” value is given as greater than 2074 fold.

Take `CC(=O)Nc1cc(Nc2cc(C)cc(S(C)(=O)=O)n2)c(-c2ccc(C(C)(C)N)cn2)cn1` [Example A20, N-(5-(2-aminopropan-2-yl)-4′-((4-methyl-6-(methylsulfonyl)pyridin-2-yl)amino)-[2,3′-bipyridin]-6′-yl)acetamide]: the IC50 came to 0.03 nM in test [1], 2380 nM with pSTAT5/GM-CSF and 1.12 nM in test [2]. Moreover, the “Selectivity fold (TYK2/JAK2)” value in test [2] came to 2124 fold.

As for `CC(=O)Nc1cc(Nc2cc(C)cc(S(C)(=O)=O)n2)c(-c2ccn(C3CCOC3)n2)cn1` (centres unmarked) [Example M31, N-(4-((4-methyl-6-(methylsulfonyl)pyridin-2-yl)amino)-5-(1-(tetrahydrofuran-3-yl)-1H-pyrazol-3-yl)pyridin-2-yl)acetamide], the IC50 in test [1] amounted to 0.031 nM; in the test on pSTAT5/GM-CSF it was 1420 nM; in test [2], 0.828 nM. Further, the “Selectivity fold (TYK2/JAK2)” value with pSTAT5/GM-CSF (setting [3]) came out at 1714 fold.
